# Assay results as given in patent publication US11612572B2, “Treatment of schizophrenia using beta-caryophyllene and CB2 receptor agonists” (priority 2012, dated 2023).
# Entries after “also recorded” stand apart in the source; their conditions may differ.
# Key:
# cannabinoid receptor CB2 [1] = molecular target: T1, cannabinoid receptor CB2 (Homo sapiens, UniProt P34972); settings: cited from earlier work
# cannabinoid receptor CB2 [2] = molecular target: T1, cannabinoid receptor CB2; settings: at CB2; cited from earlier work
# [3] = tested on: mouse model of schizophrenia; experiment: Open-field test (ambulation/crossing, rearing, grooming)
# MGL = experiment: Expression of MGL in brain tissue; type: in vivo; settings: PCP vs control, 2 week old mice
# Text: Expression of MGL in 2 Week Old Mice
# [4] = tested on: mouse model of schizophrenia; experiment: Elevated Plus Maze test; settings: Study I, age 13 weeks
# CB2 receptor = experiment: Expression level of CB2 receptor in brain tissue; type: in vivo, mice; settings: for mRNA expression of CB2 receptor: PCP-treated vs control mice, 9 days old
# Protocol: (§1) Expression Level of CB1 and CB2 Receptor in Mice at 9 Days Old (mRNA) or 2 Weeks Old (Protein)
# (§2) Brain tissue of control mice (saline treated) and mice treated with PCP were analyzed in the left and right cortex and brain stem (FIGS. 7A-I; FIG. 8. Results from the cortex and brain stem were reported by the Inventors in 2011 (Anavi-Goffer et al).
# [5] = Body weight of mice in the neonatal PCP model
# [6] = tested on: mouse model of schizophrenia; experiment: Behavior in the Phenotyper cage; type: in vivo, mice; settings: Study II
# GAD67 = experiment: Expression level of GAD67 in brain tissue; type: in vivo, mice; settings: PCP vs control; for GAD67 protein level: 2 weeks old; for GAD67 mRNA level: 9 days old
# Protocol: Expression Level of GAD67 in Mice at 9 Days Old (mRNA) or 2 Weeks Old (Protein)
# Brain tissue of control mice and mice treated with PCP were analyzed for GAD67, a neurochemical marker for schizophrenia (FIG. 9A-F).
# CB1 receptor = experiment: Expression level of CB1 receptor in brain tissue; type: in vivo; settings: PCP-treated vs control mice, 9 days old
# Protocol: as §1, §2
# [7] = tested on: mouse model of schizophrenia; experiment: Prepulse inhibition (PPI) of the startle reflex; settings: Study I, age 8 weeks
# [8] = Study III: male mice, PND 17, PCP 5 mg/kg, 1 h later BCP 10 mg/kg or BCP+AM630 10 mg/kg each, DMSO-based vehicle
# T1 sequence (P34972 whole entry): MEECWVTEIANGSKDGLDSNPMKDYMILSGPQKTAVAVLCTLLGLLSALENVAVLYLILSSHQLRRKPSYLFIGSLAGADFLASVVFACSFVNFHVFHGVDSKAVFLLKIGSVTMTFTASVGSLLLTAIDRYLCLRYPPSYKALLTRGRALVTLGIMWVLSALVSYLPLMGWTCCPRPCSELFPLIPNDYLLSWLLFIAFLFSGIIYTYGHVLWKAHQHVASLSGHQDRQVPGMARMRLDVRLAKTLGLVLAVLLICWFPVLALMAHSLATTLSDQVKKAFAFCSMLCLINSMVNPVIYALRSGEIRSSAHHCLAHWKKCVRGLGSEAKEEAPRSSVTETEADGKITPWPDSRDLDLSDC
structure (smiles),measurement,setting,value
"COc1ccc(C(=O)c2c(C)n(CCN3CCOCC3)c3cc(I)ccc23)cc1 [AM630, 6-Iodopravadoline, reference compound]",activity at CB2 receptor,cannabinoid receptor CB2 [1],potent and selective inverse agonist
same,Ki,cannabinoid receptor CB2 [2],32.1 nM
same,open-field behaviors compared with PCP-treated mice,"[3]; Study III: PCP+BCP+AM630 group, male mice, PND 17",not significantly different from these of PCP-treated mice
same,ambulation,[3]; [8],reversed the effects of BCP on ambulation and rearing behaviors; also recorded: reversed the effect of BCP on PCP-induced inhibition of ambulation and rearing
same,rearing,[3]; [8],reversed the effects of BCP on ambulation and rearing behaviors; also recorded: reversed the effect of BCP on PCP-induced inhibition of ambulation and rearing
"c1ccc(C2(N3CCCCC3)CCCCC2)cc1 [PCP, Phencyclidine, reference compound]",protein level of MGL,MGL; Western blotting (FIG. 10C),reduction in protein level of MGL
same,mRNA levels of MGL,MGL; left cortex (FIG. 10A),decreased
same,time spent in the distal end of the opened arm (anxiety),"[4]; females (FIGS. 6E, 6G)",reduced the time spent in the distal end of the opened arm; also recorded: induced anxiety in female mice
same,time spent in the distal end of the opened arm (anxiety),"[4]; males (FIGS. 6F, 6H)",increased the time spent in the distal end of the opened arm; also recorded: anxiolytic effect in male mice
same,mRNA expression of CB2 receptor,CB2 receptor; brain stem,significant increase
same,mRNA expression of CB2 receptor,CB2 receptor; left cortex,significant increase
same,mRNA expression of CB2 receptor,CB2 receptor; right cortex,no difference between control and PCP-treated mice
same,CB2 receptor expression level,"CB2 receptor; following administration of PCP, different brain areas",selectively down-regulated in different brain areas
same,putative CB2 receptor expression,"CB2 receptor; mice neonatally treated with phencyclidine, right cortex and basal ganglia/diencephalon",up-regulation
same,body weight,"[5]; Study I, ethanol-based vehicle, PND 7 / first week of life (FIG. 1B)",induced a significant reduction in body weight
same,body weight,"[5]; Study I: PCP 5 mg/kg PND 3-16, BCP 10 mg/kg 1 h after PCP, ethanol-based vehicle, each day of injection PND 3-17 (FIG. 1A)",significantly reduce the body weight
same,body weight,"[5]; Study I, PND 17 (FIG. 2C)",still significant
same,body weight,"[5]; Study I, PND 35-37, males (FIG. 4A)",no significant difference in male body weight between the groups
same,body weight,"[5]; Study II: PCP 5 mg/kg, days 3, 5, 7, 10, 12, 15 and 17, male and female (FIG. 13A)",significantly reduced body weight
same,body weight,"[5]; Study II, PND 63 (FIG. 14B)",no significant difference in the body weight between vehicle-treated mice and PCP-treated mice
same,frequency of entries to the wheel,"[6]; PND 91, females and males",reduced the frequency of entries to the wheel
same,time spent in the Hidden Zone,"[6]; PND 91, females and males",increased the time spend at the Hidden Zone
same,frequency of entries to the hidden zone,"[6]; PND 91, males (FIG. 20D)",appeared to reduce the frequency of entries to the Hidden Zone in males
same,frequency of entries to the hidden zone,[6]; PND 105,increased the frequency of entries to the Hidden Zone
same,GAD67 protein level,"GAD67; brain stem, Western blotting (FIG. 9C)",non-significant reduction
same,GAD67 protein level,GAD67; left cortex (FIG. 9A),significantly decreased
same,GAD67 protein level,GAD67; right cortex (FIG. 9B),did not reach a significant level
same,GAD67 mRNA level,GAD67; brain stem (FIG. 9F),increased
same,GAD67 mRNA level,GAD67; left cortex (FIG. 9D),no change was found at the mRNA level
same,GAD67 mRNA level,GAD67; right cortex (FIG. 9E),no change was seen in the mRNA level
same,mRNA expression of CB1 receptor,CB1 receptor; brain stem,significant increase
same,mRNA expression of CB1 receptor,CB1 receptor; left or right cortex,No significant increase
same,rearing,"[3]; Study I, ethanol-based vehicle, PND 17 (FIG. 2B)",significantly inhibited both ambulation and rearing behaviors
same,ambulation (exploration),"[3]; Study I: PCP 5 mg/kg, BCP 10 mg/kg, ethanol-based vehicle, PND 17 (FIG. 2A)",significantly inhibited both ambulation and rearing behaviors
same,ambulation,"[3]; Study I, PND 17, females",more sensitive to the effect of PCP
same,rearing behavior,"[3]; Study I, PND 17, females",more sensitive to the effect of PCP
same,locomotor activity,"[3]; Study I, PND 17, males",appeared to be less sensitive to the treatment of PCP or PCP+BCP
same,rearing and exploration behaviors,"[3]; Study I, PND 35-37, females (FIGS. 4E, 4F)",no differences in rearing and exploration behaviors were seen between the different groups
same,locomotor activity,"[3]; Study I, PND 35-37, males (FIG. 4C)",significantly increased the locomotor activity compared with vehicle treatment
same,ambulation,"[3]; Study II: PCP 5 mg/kg, PND 16 (FIG. 13B)",significantly inhibited
same,rearing,"[3]; Study II: PCP 5 mg/kg, PND 16 (FIG. 13C)",significantly inhibited
same,ambulation,[3]; [8],significantly inhibited both ambulation and rearing behaviors
same,rearing,[3]; [8],significantly inhibited both ambulation and rearing behaviors
same,"% inhibition (ability to adjust to sound stimulus, PPI)",[7]; females (FIG. 5D),No significant difference
same,"% inhibition (ability to adjust to sound stimulus, PPI)",[7]; males (FIG. 5B),significant reduction in their ability to adjust to sound stimulus
